Results taken from patent publication US20100331348A1, “TROPANE DERIVATIVES USEFUL AS PESTICIDES” (SYNGENTA CROP PROTECTION, INC., priority 2007, published 2010).
Read-outs that look alike come from different tables or passages of the source.

Assays:
[1] = tested on: Phytophthora infestans; test: whole plant or invertebrate; format: in vivo; conditions: foliar, 96 h, read-out: control of fungal infection, Phytophthora infestans
[2] = tested on: Pyricularia oryzae; test: whole plant or invertebrate; format: in vivo; conditions: foliar, 96 h
[3] = tested on: Aedes aegypti; test: Aedes aegypti (Yellow fever mosquito) larvae test; format: in vivo; conditions: 48 h
[4] = tested on: Puccinia recondita f.sp. tritici; test: Puccinia recondita f.sp. tritici (wheat brown rust) leaf disk assay; format: in vivo; conditions: foliar, 216 h, preventive, nine days after inoculation, read-out: control of fungal infection, Puccinia recondita f.sp. tritici
[5] = tested on: Erysiphe graminis f.sp. tritici; test: Erysiphe graminis f.sp. tritici (wheat powdery mildew) leaf disk assay; format: in vivo; conditions: Blumeria graminis, foliar, 96 h, preventive, four days after inoculation, read-out: control of fungal infection, Erysiphe graminis fsp. tritici
[6] = tested on: Plasmopara viticola; test: Plasmopara viticola (downy mildew of grapevine) leaf disk assay; format: in vivo; conditions: foliar, 168 h, preventive, seven days after inoculation, read-out: control of fungal infection, Plasmopara viticola
[7] = tested on: Plutella xylostella; test: Plutella xylostella (Diamond back moth) artificial diet test; conditions: 120 h, read-out: control of Plutella xylostella
[8] = read-out: control of fungal infection, Pyricularia oryzae (at least 60% list)
[9] = read-out: control of fungal infection, Pyricularia oryzae (at least 80% list)

Compound	pest or weed control at 200 ppm [1]	pest or weed control at 200 ppm [2, 8]	pest or weed control at 2 ppm [3]	pest or weed control at 200 ppm [4]	pest or weed control at 200 ppm [5]	pest or weed control at 200 ppm [2, 9]	pest or weed control at 200 ppm [6]	pest or weed control at 200 ppm [7]
Clc1cccc(CON=C2CC3CCC(C2)N3c2ncnc3sccc23)c1 [Example 5.150]	≥ 80%	≥ 60%	≥ 80%	≥ 80%	≥ 80%			
N#Cc1cccc(CON=C2CC3CCC(C2)N3c2ncnc3sccc23)c1 [Example 5.199]	≥ 80%			≥ 80%	≥ 80%	≥ 80%		
Brc1ccc(CON=C2CC3CCC(C2)N3c2ncnc3sccc23)cc1 [Example 5.158]	≥ 80%			≥ 80%	≥ 80%	≥ 80%		
CC(=O)Nc1ccc(CON=C2CC3CCC(C2)N3c2ncnc3sccc23)cc1 [Example 5.159]	≥ 80%				≥ 80%			
Fc1cc(F)c(F)c(CON=C2CC3CCC(C2)N3c2ncnc3sccc23)c1 [Example 5.227]	≥ 80%	≥ 60%	≥ 80%	≥ 80%	≥ 80%			
O=C(CC1CC2CCC(C1)N2c1ncnc2sccc12)Nc1ccc(Cl)cc1 (stereo not drawn) [Example 7.12]				≥ 80%			≥ 80%	
c1nc(N2C3CCC2CC(=NOCCC2CCCCC2)C3)c2ccsc2n1 [Example 5.136]							≥ 80%	
Clc1cc(ON=C2CC3CCC(C2)N3c2ncnc3sccc23)nc(Cl)n1 [Example 5.154]							≥ 80%	
Cc1nn(C)c2nccc(N3C4CCC3CC(=NOCc3ccccc3)C4)c12 [Example 5.253]							≥ 80%	
CCCNC(=O)C=C1CC2CCC(C1)N2c1ncnc(CC)c1Cl [Example 3.5]				≥ 80%			≥ 80%	
COc1cc(ON=C2CC3CCC(C2)N3c2ncnc3sccc23)nc(SC)n1 [Example 5.246]				≥ 80%			≥ 80%	
CCC(=O)c1ccc(OC2C[C@H]3CC[C@@H](C2)N3c2ncnc3sccc23)cc1 (stereo partly drawn) [Example 1.256]	≥ 80%		≥ 80%	≥ 80%				
FC(F)(F)c1ccc(OC2C[C@H]3CC[C@@H](C2)N3c2ncnc3sccc23)nc1 (stereo partly drawn) [Example 2.61]	≥ 80%	≥ 60%		≥ 80%	≥ 80%			
CCOC(=O)c1ccc(CON=C2CC3CCC(C2)N3c2ncnc3sccc23)o1 [Example 5.259]				≥ 80%	≥ 80%		≥ 80%	
CCC1COC2(CC3CCC(C2)N3c2ncnc3sccc23)O1 (stereo not drawn) [Example 6.9]			≥ 80%	≥ 80%	≥ 80%		≥ 80%	
CCc1ncnc(N2C3CCC2CC(=NOCc2ccc(NC(C)=O)cc2)C3)c1Cl [Example 5.51]	≥ 80%			≥ 80%	≥ 80%			
N#Cc1ccccc1CON=C1CC2CCC(C1)N2c1ncnc2sccc12 [Example 5.191]			≥ 80%	≥ 80%	≥ 80%		≥ 80%	
Cc1nsc(Oc2cccc(OC3C[C@H]4CC[C@@H](C3)N4c3ncnc4scc(C)c34)c2)n1 (stereo partly drawn) [Example 2.73]	≥ 80%				≥ 80%			
CCc1ncnc(N2C3CCC2CC(=NOCC(=O)OC(C)(C)C)C3)c1Cl [Example 5.24]	≥ 80%				≥ 80%			
c1ccc2nc(CON=C3CC4CCC(C3)N4c3ncnc4sccc34)ccc2c1 [Example 5.193]			≥ 80%	≥ 80%	≥ 80%		≥ 80%	
CCc1ncnc(N2C3CCC2CC(=NOCc2nc(C)cc(Cl)n2)C3)c1Cl [Example 5.13]					≥ 80%		≥ 80%	
CCc1ncnc(N2C3CCC2CC(=NOc2nc(Cl)ccc2C(F)(F)F)C3)c1Cl [Example 5.117]							≥ 80%	
Cc1nc(CON=C2CC3CCC(C2)N3c2ncnc3sccc23)cs1 [Example 5.220]	≥ 80%			≥ 80%	≥ 80%			
Cc1cc(C)c(CON=C2CC3CCC(C2)N3c2ncnc3sccc23)c(C)c1 [Example 5.189]	≥ 80%			≥ 80%	≥ 80%			

Compound	pest or weed control at 200 ppm [1]	pest or weed control at 200 ppm [2, 8]	pest or weed control at 2 ppm [3]	pest or weed control at 200 ppm [4]	pest or weed control at 200 ppm [5]	pest or weed control at 200 ppm [2, 9]	pest or weed control at 200 ppm [6]	pest or weed control at 200 ppm [7]
Brc1cccc(CON=C2CC3CCC(C2)N3c2ncnc3sccc23)c1 [Example 5.181]	≥ 80%	≥ 60%	≥ 80%	≥ 80%	≥ 80%			
Fc1cccc(OC2C[C@H]3CC[C@@H](C2)N3c2ncnc3sccc23)c1 (stereo partly drawn) [Example 1.15]				≥ 80%			≥ 80%	
Fc1cc(CON=C2CC3CCC(C2)N3c2ncnc3sccc23)cc(C(F)(F)F)c1F [Example 5.235]	≥ 80%	≥ 60%		≥ 80%	≥ 80%			
CCc1ncnc(N2C3CCC2CC(=NOCc2cccc(F)c2)C3)c1Cl [Example 5.48]	≥ 80%		≥ 80%	≥ 80%	≥ 80%			
O=C(C=C1CC2CCC(C1)N2c1ncnc2sccc12)Nc1ccc(Cl)cc1 [Example 3.17]							≥ 80%	
CSc1nc(C)cc(OC2C[C@H]3CC[C@@H](C2)N3c2ncnc3sccc23)n1 (stereo partly drawn) [Example 1.77]					≥ 80%		≥ 80%	
c1ccc2c(c1)[nH]c1cc(OC3C[C@H]4CC[C@@H](C3)N4c3ncnc4sccc34)ccc12 (stereo partly drawn) [Example 2.19]	≥ 80%				≥ 80%			
CCc1ncnc(N2[C@@H]3CC[C@H]2CC(Oc2ccc(OC)cc2C(C)=O)C3)c1Cl (stereo partly drawn) [Example 1.211]	≥ 80%							
CCc1ncnc(N2C3CCC2CC(=NOCc2ccccc2OC)C3)c1Cl [Example 5.23]				≥ 80%	≥ 80%		≥ 80%	
CCc1ncnc(N2C3CCC2CC(=NOCc2ccccc2C)C3)c1Cl [Example 5.10]	≥ 80%			≥ 80%	≥ 80%			≥ 80%
Cc1ccc(OC2C[C@H]3CC[C@@H](C2)N3c2ncnc3sccc23)cn1 (stereo partly drawn) [Example 2.44]	≥ 80%				≥ 80%			
CCc1ncnc(N2C3CCC2CC(=NOCc2ccc(F)c(F)c2F)C3)c1Cl [Example 5.81]	≥ 80%	≥ 60%	≥ 80%	≥ 80%	≥ 80%			
CCc1ncnc(N2C3CCC2CC(=NOCc2c(C)noc2C)C3)c1Cl [Example 5.110]	≥ 80%			≥ 80%				
Clc1cc2c(cc1CON=C1CC3CCC(C1)N3c1ncnc3sccc13)OCO2 [Example 5.250]			≥ 80%	≥ 80%	≥ 80%		≥ 80%	
FC(F)(F)c1cccc(OC2C[C@H]3CC[C@@H](C2)N3c2ncnc3ccccc23)n1 (stereo partly drawn) [Example 2.83]	≥ 80%			≥ 80%	≥ 80%			
CC(NC(=O)C=C1CC2CCC(C1)N2c1ncnc2sccc12)c1ccccc1 (stereo not drawn) [Example 3.22]				≥ 80%			≥ 80%	
c1cnc(OC2C[C@H]3CC[C@@H](C2)N3c2ncnc3sccc23)nc1 (stereo partly drawn) [Example 1.2]	≥ 80%			≥ 80%	≥ 80%	≥ 80%		
Fc1cc(CON=C2CC3CCC(C2)N3c2ncnc3sccc23)cc(C(F)(F)F)c1 [Example 5.231]		≥ 60%			≥ 80%		≥ 80%	
Cc1cc(OCC=C2CC3CCC(C2)N3c2ncnc3sccc23)nc(C)n1 [Example 3.18]			≥ 80%	≥ 80%			≥ 80%	
Fc1ccc(CON=C2CC3CCC(C2)N3c2ncnc3sccc23)cc1F [Example 5.185]	≥ 80%	≥ 60%	≥ 80%	≥ 80%	≥ 80%	≥ 80%		≥ 80%
CN(C)C(=O)C=C1CC2CCC(C1)N2c1ncnc2sccc12 [Example 3.25]	≥ 80%							
c1ccc(CCON=C2CC3CCC(C2)N3c2ncnc3sccc23)cc1 [Example 5.140]	≥ 80%	≥ 60%		≥ 80%	≥ 80%	≥ 80%		
COC(=O)Cc1c(Cl)ncnc1ON=C1CC2CCC(C1)N2c1ncnc2sccc12 [Example 5.237]	≥ 80%				≥ 80%			
